Key:
[1] = tested on: diabetic rats; experiment: CIN model, Example 5: INO-1001 alone and with NAC in diabetic rats; type: in vivo, rat; settings: diabetic rats + Iomeprol, NAC 30 mg/kg i.v., INO-1001 10 mg/kg ip, or both, at −30 min
Protocol: (§1) Male Wistar rats (150-200 g; Harlan Nossanr) were housed in a controlled environment and provided with standard rodent chow and water. Diabetes was induced after 12 h of fasting. The animals received a single 60 mg/kg intravenous (i.v.) injection of streptozotocin (Sigma, St. Louis, Mo.) in 10 mM sodium citrate buffer, pH 4.5 (see figure). Control non-diabetic animals were fasted and received citrate buffer alone. After 24 hours, animals with blood glucose levels greater than 250 mg/dl were considered diabetic. The diabetic state was confirmed by evaluating the blood glucose levels. Ten days following the induction of diabetes rats were anesthetized with 90 mg/kg ketamine i.m. and 10 mg/kg xylazine i.m. and were treated with the contrast agent iomeprol (10 mL/kg injected via the lateral tail vein) or with 0.9% normal saline. The contrast agent used was the low osmolar non-ionic monomer iomeprol (Iomeron, 400 mgI mL-1; Bracco SpA, Milan, Italy) with an osmolality of 726±34 mosmol/kg H2O.
GROUP 1: Diabetic rats only+Placebo (i.v.). GROUP 2: Diabetic rats+Iomeprol+Placebo (i.v.) given at −30 min. GROUP 3: Diabetic rats+Iomeprol+NAC (30 mg/kg, i.v.) given at −30 min. GROUP 4: Diabetic rats+Iomeprol+INO-1001 (10 mg/kg, ip) given at −30 min. GROUP 5: Diabetic rats+Iomeprol+NAC (30 mg/kg, i.v.)+INO-1001 (10 mg/kg, ip) given at −30 min.
(§2) Blood samples were collected via the lateral tail vein into S1/3 tubes containing serum gel at 24 hours. The samples were centrifuged (6000 r.p.m. for 3 min) to separate plasma. All plasma samples were analyzed for biochemical parameters within 24 hours after collection. Plasma and urine concentrations of creatinine were measured as indicators of impaired glomerular function. Creatinine clearance was calculated using the following formula (=UV/P), where U refers to Creatinine concentration in urine, V to urine volume/min and P to serum creatinine. Plasma and urine concentrations of NGAL (neutrophil gelatinase associated lipocalin) levels and urine αGST (alpha glutathione S-transferase) and NGAL levels were evaluated.
Protein concentration in urine was determined by Bio-Rad DC Protein Assay (BioRad, Richmond Calif.). The Bio-Rad DC protein assay is a colorimetric assay for protein concentration. The reaction is similar to the well-documented Lowry assay (Lowry et al., Protein measurement with the Folin phenol reagent, J Biol Chem 193, 265-275 (1951). The Bio-Rad DC protein assay requires only a single 15-minute incubation, and absorbance is stable for a least 2 hours. The amount of protein is expressed in mg/ml.

[2] = tested on: diabetic rats; experiment: CIN model, Example 3: M40403 alone and with NAC in diabetic rats; type: in vivo, rat; settings: diabetic rats + Iomeprol, 24 hours; M40403 0.5 mg/kg i.v. alone or + NAC 3 mg/kg i.v., at −30 min
Protocol: as §1, with “12 hours” for “12 h”
as §2, with “gel at 0 and 24 hours.” for “gel at 24 hours.”, “of NGAL levels were” for “of NGAL (neutrophil gelatinase associated lipocalin) levels and urine αGST (alpha glutathione S-transferase) and NGAL levels were”

[3] = Iomeron, 400 mgI mL-1; cited from earlier work

SMILES: O=c1[nH]cnc2c1ncn2[C@@H]1O[C@H](CO)[C@@H](O)[C@H]1O [INO-1001]
- plasma creatinine ([1]; 24 h): significant reductions
- plasma NGAL concentration ([1]; 24 hours): significant reductions
- total protein concentration in the urine ([1]; 24 hours): significant reductions
- urine NGAL concentration ([1]; 24 hours): significant reductions
- urine αGST ([1]; 24 hours): significant reductions

SMILES: [Cl-].[Cl-].[Mn+2].c1cc2nc(c1)CN[C@@H]1CCCC[C@H]1NCCN[C@@H]1CCCC[C@H]1NC2 [Metalloporphyrin M40403]
- plasma NGAL concentration [2]: significant reduction
- plasma Na+ [2]: significant reductions
- plasma concentrations of K+ [2]: significant increase
- plasma creatinine [2]: significant reductions
- total protein concentrations in the urine [2]: significantly reduced
- urine NGAL concentration [2]: significant reduction

SMILES: CN(C(=O)CO)c1c(I)c(C(=O)NCC(O)CO)c(I)c(C(=O)NCC(O)CO)c1I (stereo not drawn) [iomeprol]
- osmolality [3]: 726±34 mosmol/kg H2O

From patent US20090257999A1, “Method of preventing contrast-induced nephropathy” (Inotek Pharmaceuticals Corporation, priority 2007, published 2009)
